Columns and labels:
[1] = 19F R1 relaxation leakage test of metalated emulsions with EDTA at 37 °C; assay type: physicochemical; details: small fluorinated diketones
From the text: Decrease in relaxation rate ^19F R1 would indicate sequestration of Fe^3+ to the aqueous phase, where it is too far from fluorine-19 nuclei to have an effect on ^19F R1.
It may be necessary for sufficient stability to use fluorinated diketones with heavily fluorinated substituents that are well-miscible with other fluorinated agents known in the art to be useful for ^19F MRI.

[2] = cited from earlier work
[3] = 3 T; cited from earlier work
[4] = Kinetics of emulsion metalation with metal salts (UV-Vis); assay type: physicochemical
Protocol: Strong absorbance of aromatic diketone and its complexes permits facile kinetic investigation of metalation rates. In a typical measurement, emulsion from example 4 was diluted to 70 uM diketone (excess ligand, modeling radiolabeling conditions) into a solution of chosen pH and treated with 10 uM metal cations of relevance to medical imaging, including Fe^3+ (MRI), Cu^2+ (PET), Ga^3+ (PET, SPECT), Sc^3+ (PET), and In^3+ (SPECT). In all cases, UV-Vis spectral changes indicative of metal uptake into the fluorous phase were detected, proportional in magnitude to the amount of metal. For some metals, kinetic analysis was performed. The reaction time course fit well to a pseudo-first-order process with rate constant kobs (Table 1).

[5] = Intramolecular 19F NMR relaxation rates at 9.4 T; assay type: physicochemical; details: 5 CF2 groups (precursors and Ga3+ chelate), ± s.e.m.
From the text: Intramolecular ^19F NMR relaxometry measurements of 5a isomers further confirmed the structural analyses. We observed that among Fe3+ chelates, 5a OOO isomer had the highest, and 5a PPP isomer had the lowest, R1 and R2 values (Table 3). Ortho-substitution caused a more drastic intramolecular PRE, by ˜3 orders of magnitude, compared to para-substitution due to the closer proximity of the Fe3+ paramagnetic center to the ortho position ([…]) compared to the para position ([…]).
NMR spectra and relaxation rates were recorded on a Bruker Ascend 400 MHz (9.4 T) spectrometer (Billerica, MA). Additional relaxation rate measurements were performed at 3 T using a GE750 (General Electric, Milwaukee, WI) clinical MRI system equipped with a custom dual-channel ^19F/1H 72 mm diameter volume coil (RAPID Biomedical, Rimpar, Germany). The ^19F NMR spectra were referenced to an internal standard, sodium trifluoroacetate (NaTFA, 0.1 wt %, −76.00 ppm, Sigma-Aldrich, T6508), which was placed in a separate sealed capillary tube within the NMR tube. Relaxation measurements were performed using a standard inversion recovery pulse sequence and a Carr-Purcell-Meiboom-Gill sequence with echo-time (TE) values in 12 linear increments. The T1 and T2 values were obtained by nonlinear fitting using MNova 6.0.2 software (Mestrelab, Escondido, CA). Fit errors were less than 5% of T1 and T2 values. For quantitative peak measurements, spectra were acquired using calibrated 90° pulses, 32,000 complex points, spectral window 0 to −200 ppm, relaxation delay 2.5 s, and 128 averages. Spectra were processed in MNova with manual phase correction and Whittaker smoother baseline correction (filter=1 ppm). Relaxation parameters were measured for six middle CF2 peaks of PFOB, spanning ˜10 ppm, which account for 12 out of 17 F atoms in the molecule. To assay nanoemulsion uptake (^19F/cell) using NMR, an aliquot of 1×10^6 cells were pelleted and resuspended in 0.1 mL of lysis solution (0.5% Triton X, 100 mM NaCl, 20 mM Tris, 1 mM EDTA) and reference compound NaTFA (0.745 mg/mL)/D2O was added to 5 mm NMR tube. The integrated ratio of PFOB fluorine peaks to NaTFA singlet fluorine peak at −76.00 ppm determined the amount of ^19F in the cell pellet and the ^19F/cell was calculated.
(§1) NMR measurements. NMR spectra and relaxation rates were recorded on a Bruker Ascend 400 MHz (9.4 T) spectrometer (Billerica, MA). […] For quantitative peak measurements, spectra were acquired using calibrated 90° pulses, 32,000 complex points, spectral window 0 to −200 ppm, relaxation delay 2.5 s, and 128 averages. […] Relaxation parameters were measured for six middle CF2 peaks of PFOB, spanning ˜10 ppm, which account for 12 out of 17 F atoms in the molecule. […]

RAW cells = experiment: NAO flow cytometry assay for cytotoxicity (apoptosis); assay type: cell-based, murine; details: 16 h labeling, compared to unlabeled cells
Protocol: We investigated the potential effect of P-PFOB labeling on RAW cell viability and phenotype (FIG. 4A-FIG. 4D). To study cytotoxicity, we used a flow cytometry assay for apoptosis (FIGS. 4A-4C) using 10-N-nonyl acridine orange (NAO).^20 As a positive control to induce oxidative stress, 10% ethanol was added to the cell media. […] Side-scatter is routinely used in flow cytometry to distinguish cell types by granularity. Labeled cells often display increased granularity with internalization of PFC droplets. To assay cell phenotype, we used flow cytometry to monitor potential changes in cell surface CD86 expression as a marker for macrophage activation, where increased levels indicated a pro-inflammatory response to label. Lipopolysaccharide (LPS) treatment was used as a positive control to induce a pro-inflammatory phenotype.
Viability assay. 10-N-nonyl acridine orange (NAO) was obtained from Invitrogen (A1372, Carlsbad, CA). NE labeled and control RAW cells were stained with 100 ng/ml of NAO for 15 minutes followed by washes according to manufacturer's instructions. As a positive control, cells were stressed by incubation with 10% ethanol at 37° C. containing 5% CO2 for 90 minutes before NAO staining. Green fluorescence from NAO dye (emission max at 520 nm) was detected using flow cytometry (LSR Fortessa, BD Biosciences).

[6] = Intermolecular 19F NMR relaxometry and susceptibility shift in PFOB; assay type: physicochemical; details: neat PFOB
From the text: We screened the impact of various cations bound to SALTAME 5a and dissolved in PFOB via NMR relaxometry and susceptibility shift measurements (Table 4). Of the period-4 cations tested (V3+, Cr3+, Mn2+, Fe3+, Co2+, Cu2+, Ni2+, Zn2+, Ga3+), only Mn4+, Fe3+, Co3+, and Ga3+ formed stable and separable (by column chromatography) chelates with SALTAME. […] The diamagnetic Ga3+ chelate had little relaxation effects or shift for PFOB. […] Mn4+ changed r1, r2 and susceptibility shift, but to a much lesser extent than Fe3+.
The longitudinal and transverse ^19F relaxation rates of the Fe3+ chelate, 5a POP, was further evaluated as a function of iron concentration at the clinically-relevant field strength of 3 T yielding relaxivities r1 and r2 of 0.56 s−1 mM−1 and 1.67 s−1 mM−1, respectively, compared to 0.50 s−1 mM−1 and 1.07 s−1 mM−1 values of r1 and r2 at 9.4 T, respectively. […]
as §1, with “NMR” for “NMR measurements. NMR”

[7] = final [M3+] 10 uM, final [ligand] 70 uM, pH 2.1 (8 mM HCl)

Compound: CC(C)(C)C(=O)CC(=O)C(F)(F)C(F)(F)C(F)(F)F [H-fod]
- enhancing relaxation [1]: highly effective
- stability under EDTA competition and cell labeling [1]: not stable enough

Compound: FC1(F)OC(F)(F)C(F)(F)OC(F)(F)C(F)(F)OC(F)(F)C(F)(F)OC(F)(F)C(F)(F)OC1(F)F [PFCE, perfluoro-15-crown-5-ether]
- half-life in vivo (body) [2]: > 100 days
- T1 [3]: ~0.9 ms

Compound: [Cl][Fe]([Cl])[Cl] [FeCl3]
- kobs ([4]; final [M3+] 5 uM, final [ligand] 70 uM, pH 2.1 (8 mM HCl)): 0.79 min⁻¹
- kobs [4, 7]: 0.70 min⁻¹

Compound: O=C(CC(=O)C(F)(F)F)C(F)(F)F [H-hfp]
- enhancing relaxation [1]: highly effective
- stability under EDTA competition and cell labeling [1]: not stable enough

Compound: C/C(O)=C/C(=O)C(F)(F)C(F)(F)C(F)(F)F [H-hhd]
- enhancing relaxation [1]: highly effective
- stability under EDTA competition and cell labeling [1]: not stable enough

Compound: O=C(CC(=O)C(F)(F)F)c1cccs1 [H-tta]
- enhancing relaxation [1]: highly effective
- stability under EDTA competition and cell labeling [1]: not stable enough

Compound: O=Cc1cc(C(F)(F)C(F)(F)C(F)(F)C(F)(F)C(F)(F)C(F)(F)F)ccc1O [3a, 5-Perfluorohexyl-salicylaldehyde]
- R1 (intramolecular 19F) [5]: 1.33 ± 0.01 s⁻¹
- R2 (intramolecular 19F) [5]: 1.75 ± 0.01 s⁻¹

Compound: [Cl-].[Cl-].[Cl-].[In+3] [InCl3]
- kobs ([4]; final [M3+] 2 uM, final [ligand] 14 uM, pH ~5 (unbuffered H2O)): >10 min⁻¹
- kobs ([4]; final [M3+] 10 uM, final [ligand] 70 uM, pH 7.4 HEPES): 0.0322 min⁻¹

Compound: O=C(CC(=O)C(F)(F)F)c1ccccc1 [H-bta]
- enhancing relaxation [1]: highly effective
- stability under EDTA competition and cell labeling [1]: not stable enough

Compound: CCO [ethanol]
- cytotoxicity (NAO apoptosis assay) (RAW cells): display cytotoxicity

Compound: FC(F)(F)C(F)(F)C(F)(F)C(F)(F)C(F)(F)C(F)(F)C(F)(F)C(F)(F)Br [PFOB, perfluorooctylbromide]
- R1 ([6]; 3 T): 0.79 s⁻¹
- R1 ([6]; 9.4 T): 1.4 s⁻¹
- half-life in vivo (body) [2]: 3 to 8 days
- T1 [3]: ~1200 ms

Compound: C/C(O)=C/C(=O)C(F)(F)C(F)(F)C(F)(F)C(F)(F)C(F)(F)C(F)(F)F [H-tdd]
- enhancing relaxation [1]: highly effective
- stability under EDTA competition and cell labeling [1]: not stable enough

Compound: O=Cc1cccc(C(F)(F)C(F)(F)C(F)(F)C(F)(F)C(F)(F)C(F)(F)F)c1O [3b, 3-Perfluorohexyl-salicylaldehyde]
- R1 (intramolecular 19F) [5]: 0.87 ± 0.01 s⁻¹
- R2 (intramolecular 19F) [5]: 1.12 ± 0.01 s⁻¹

Compound: [Cl][Ga]([Cl])[Cl] [GaCl3]
- kobs [4, 7]: 0.043 min⁻¹
